Measured values published in patent US9192656B2, “Methods and compositions for the treatment of cancer” (QUINTESSENCE BIOSCIENCES, INC., priority 2006, dated 2015).
Numbering of substitutions follows the chain as printed. Names and notes keep the numbering of the source.

Assays:
[1] = test system: human pancreatic cancer cell line (B×PC-3); assay: In vivo inhibition of tumor growth, BxPC-3 xenograft; design: species or system human tumor cells in nude mice; conditions: Example 5, Table 9, RNase 1 15 mg/kg qd×5, gemcite 60 mg/kg twice a week
Method: (§1) Cells from a non-small cell lung cancer cell line (A549) were grown in nine T175 flasks in F12K media and 10% fetal calf serum until the cells were confluent. 4.5×10^6 cells (in 100 microliters) were injected into the right rear flank of 4-5 week old male homozygous (nu/nu) nude mice (Harlan, Madison Wis.). Tumors were allowed to grow to an average size of ≧75 mm^3 before treatments were initiated. Animals of each tumor type, with the properly sized tumors, were divided into treatment groups, including one set of animals treated weekly with vehicle (phosphate buffered saline, PBS). The vehicle and the test agents were all administered by intraperitoneal injection. Each animal was weighed twice a week during treatment. The tumors were measured twice weekly using calipers. Tumor volume (mm^3) was determined by using the formula for an ellipsoid sphere: […]
(§2) The percent tumor growth inhibition (% TGI) is calculated by: […]
The xenograft model of this example was set up as in the previous example except that a human pancreatic cancer cell line (B×PC-3) was used. The efficacy of wild type human RNase 1 is shown relative to gemcite. The RNase 1 was administered at 15 mg per kg of body weight of the animal five times per week (15 mg/kg qd×5), while the gemcite was used at 60 mg/kg twice a week. The value of n represents the number of animals in the specific treatment arm of the experiment.
The xenograft model of this example was set up as in the previous example except that a human pancreatic cancer cell line (B×PC-3) was used. The efficacy of wild type human RNase 1 is shown. The RNase 1 was administered at three different doses: (1) 30 mg per kg of body weight of the animal once per week (30 mg/kg 1×wk), (2) 75 mg/kg 1×wk, or (3) 150 mg/kg 1×wk. The value of n represents the number of animals in the specific treatment arm of the experiment.

[2] = test system: non-small cell lung cancer cell line (A549); assay: In vivo inhibition of tumor growth, A549 xenograft; design: species or system human tumor cells in nude mice; conditions: for Starting volume: at start
Method: Cells from a non-small cell lung cancer cell line (A549) were grown in nine T175 flasks in F12K media and 10% fetal calf serum until the cells were confluent. 4.5×10^6 cells (in 100 microliters) were injected into the right rear flank of 4-5 week old male homozygous (nu/nu) nude mice (Harlan, Madison Wis.). Tumors were allowed to grow to an average size of ≧75 mm^3 before treatments were initiated. Animals of each tumor type, with the properly sized tumors, were divided into treatment groups, including one set of animals treated weekly with vehicle (phosphate buffered saline, PBS). The vehicle and the test agents were all administered by intraperitoneal injection. Each animal was weighed twice a week during treatment. The tumors were measured twice weekly using calipers. Tumor volume (mm^3) was determined by using the formula for an ellipsoid sphere:
[formula] The efficacy of wild type human RNase 1 is shown relative to cisplatin. The RNase 1 was administered at 75 mg per kg of body weight of the animal once a week (75 mg/kg 1×wk), while the cisplatin was used at 6 mg/kg once a week. The value of n represents the number of animals in the specific treatment arm of the experiment.
as §2
The xenograft model of this example was set up with the human non-small cell lung cancer cell line (A549) as in the previous examples. The efficacy of wild type human RNase 1 is shown relative to tarceva. The RNase 1 was administered at 75 mg per kg of body weight of the animal (75 mg/kg 1×wk) or 150 mg/kg 1×wk. Tarceva was given orally with doses of 50 mg/kg twice a week. The value of n represents the number of animals in the specific treatment arm of the experiment.

[3] = test system: human breast cancer cell line (MDA-MB-231); assay: In vivo inhibition of tumor growth, MDA-MB-231 xenograft; design: species or system human tumor cells in nude mice; conditions: Example 10, Table 14, female mice, RNase 1 75 mg/kg 1×wk, doxorubicin 3 mg/kg once per week
Method: as §1, §2
The xenograft model of this example was set up as in the previous example except that a human breast cancer cell line (MDA-MB-231) and female mice were used. The efficacy of wild type human RNase 1 is shown relative to doxorubicin. The RNase 1 was administered at 75 mg per kg of body weight of the animal once per week (75 mg/kg 1×wk), while the doxorubicin was given at 3 mg/kg once per week. The value of n represents the number of animals in the specific treatment arm of the experiment.

[4] = test system: non-small cell lung cancer; assay: Xenograft models of non-small cell lung cancer (RNase 1 variants); assay type: in vivo, mice; conditions: for (Final − start)/Control: relative to vehicle; for Starting volume: tumor volume at start; for tumor growth inhibition (in words): xenograft model of non-small cell lung cancer
Method: as §1, §2

[5] = Example 6, Table 10, orally 50 mg/kg twice a week
[6] = Example 3, Table 7, i.p., RNase 1 75 mg/kg 1×wk, cisplatin 6 mg/kg once a week

Molecule: Nc1ccn([C@@H]2O[C@H](CO)[C@@H](O)C2(F)F)c(=O)n1 [Gemcite, reference compound]
- % TGI [1]: 60%
- (Final − start) [1]: 427 mm^3
- (Final − start)/Control [1]: 0.40
- Final volume [1]: 505 mm^3
- Starting volume ([1]; at start): 78 mm^3

Molecule: C#Cc1cccc(Nc2ncnc3cc(OCCOC)c(OCCOC)cc23)c1 [Tarceva, N-(3-ethynylphenyl)-6,7-bis(2-methoxyethoxy)quinazolin-4-amine, reference compound]
- % TGI [2, 5]: 77%
- (Final − start) [2, 5]: 181 mm^3
- (Final − start)/Control [2, 5]: 0.23
- Final volume [2, 5]: 265 mm^3
- Starting volume [2, 5]: 84 mm^3

Molecule: COc1cccc2c1C(=O)c1c(O)c3c(c(O)c1C2=O)C[C@@](O)(C(=O)CO)C[C@@H]3O[C@H]1C[C@H](N)[C@H](O)[C@H](C)O1 [doxorubicin, reference compound]
- % TGI [3]: 84%
- (Final − start) [3]: 22 mm^3
- (Final − start)/Control [3]: 0.16
- Final volume [3]: 86 mm^3
- Starting volume ([3]; at start): 64 mm^3

Molecule: N.N.[Cl][Pt][Cl] [cisplatin, Cisplatin, reference compound]
- % TGI ([4]; Table 2, FIG. 1): 68%
- (Final − start) ([4]; Table 2, FIG. 1): 290 mm^3
- Final volume ([4]; Table 2, FIG. 1): 369 mm^3
- (Final − start)/Control ([4]; Table 2, FIG. 1): 0.32
- Starting volume ([4]; Table 2, FIG. 1): 79 mm^3
- % TGI [2, 6]: 81%
- (Final − start) [2, 6]: 58 mm^3
- (Final − start)/Control [2, 6]: 0.19
- Final volume [2, 6]: 130 mm^3
- Starting volume [2, 6]: 72 mm^3

B1: G38R/R39D/L86E/N88R/G89D/R91D RNase 1: variant of human RNase 1 with substitutions G38R, R39D, L86E, N88R, G89D, R91D (protein)
chain: KESRAKKFQRQHMDSDSSPSSSSTYCNQMMRRRNMTQRDCKPVNTFVHEPLVDVQNVCFQEKVTCKNGQGNCYKSNSSMHITDCRETRDSDYPNCAYRTSPKERHIIVACEGSPYVPVHFDASVEDST
- % TGI ([4]; Table 2, FIG. 1): 28%
- (Final − start) ([4]; Table 2, FIG. 1): 647 mm^3
- Final volume ([4]; Table 2, FIG. 1): 723 mm^3
- (Final − start)/Control ([4]; Table 2, FIG. 1): 0.72
- Starting volume ([4]; Table 2, FIG. 1): 76 mm^3
- tumor growth inhibition (in words) [4]: displayed tumor growth inhibition

B2: R4C/G38R/R39D/L86E/N88R/G89D/R91D/V118C RNase 1: variant of human RNase 1 with substitutions R4C, G38R, R39D, L86E, N88R, G89D, R91D, V118C (protein)
chain: B1 chain with R4C, V118C
- % TGI ([4]; Table 3, FIG. 2): 48%
- (Final − start) ([4]; Table 3, FIG. 2): 1022 mm^3
- Final volume ([4]; Table 3, FIG. 2): 1130 mm^3
- (Final − start)/Control ([4]; Table 3, FIG. 2): 0.52
- Starting volume ([4]; Table 3, FIG. 2): 108 mm^3
- tumor growth inhibition (in words) [4]: impacted tumor growth

B3: L86E/N88R/G89D/R91D RNase 1: variant of human RNase 1 with substitutions L86E, N88R, G89D, R91D (protein)
chain: B1 chain with R38G, D39R
- % TGI ([4]; Table 2, FIG. 1): 40%
- (Final − start) ([4]; Table 2, FIG. 1): 540 mm^3
- Final volume ([4]; Table 2, FIG. 1): 624 mm^3
- (Final − start)/Control ([4]; Table 2, FIG. 1): 0.60
- Starting volume ([4]; Table 2, FIG. 1): 84 mm^3
- tumor growth inhibition (in words) [4]: displayed tumor growth inhibition

B4: R4C/K7A/G38R/R39D/L86E/N88R/G89D/R91D/V118C RNase 1: variant of human RNase 1 with substitutions R4C, K7A, G38R, R39D, L86E, N88R, G89D, R91D, V118C (protein)
chain: B1 chain with R4C, K7A, V118C
- % TGI ([4]; Table 4, FIG. 3): 36%
- (Final − start) ([4]; Table 4, FIG. 3): 478 mm^3
- Final volume ([4]; Table 4, FIG. 3): 552 mm^3
- (Final − start)/Control ([4]; Table 4, FIG. 3): 0.36
- Starting volume ([4]; Table 4, FIG. 3): 74 mm^3
- tumor growth inhibition (in words) [4]: demonstrated measurable tumor growth inhibition
